In patent US20250361230A1, “LATS Inhibitors and Uses Thereof” (The USA, as Represented by the Secretary, Dept. of Heath …, priority 2022, published 2025):

Columns and labels:
Format in all cases: biochemical
LATS1 = target: T1, LATS1 (Homo sapiens, UniProt O95835); test: RBC HotSpot kinase assay (33P-ATP, P81 filter-binding), LATS1; conditions: Table 28, biochemical kinase assay; read-out: LATS1 IC50
T1 sequence (O95835 1-1130): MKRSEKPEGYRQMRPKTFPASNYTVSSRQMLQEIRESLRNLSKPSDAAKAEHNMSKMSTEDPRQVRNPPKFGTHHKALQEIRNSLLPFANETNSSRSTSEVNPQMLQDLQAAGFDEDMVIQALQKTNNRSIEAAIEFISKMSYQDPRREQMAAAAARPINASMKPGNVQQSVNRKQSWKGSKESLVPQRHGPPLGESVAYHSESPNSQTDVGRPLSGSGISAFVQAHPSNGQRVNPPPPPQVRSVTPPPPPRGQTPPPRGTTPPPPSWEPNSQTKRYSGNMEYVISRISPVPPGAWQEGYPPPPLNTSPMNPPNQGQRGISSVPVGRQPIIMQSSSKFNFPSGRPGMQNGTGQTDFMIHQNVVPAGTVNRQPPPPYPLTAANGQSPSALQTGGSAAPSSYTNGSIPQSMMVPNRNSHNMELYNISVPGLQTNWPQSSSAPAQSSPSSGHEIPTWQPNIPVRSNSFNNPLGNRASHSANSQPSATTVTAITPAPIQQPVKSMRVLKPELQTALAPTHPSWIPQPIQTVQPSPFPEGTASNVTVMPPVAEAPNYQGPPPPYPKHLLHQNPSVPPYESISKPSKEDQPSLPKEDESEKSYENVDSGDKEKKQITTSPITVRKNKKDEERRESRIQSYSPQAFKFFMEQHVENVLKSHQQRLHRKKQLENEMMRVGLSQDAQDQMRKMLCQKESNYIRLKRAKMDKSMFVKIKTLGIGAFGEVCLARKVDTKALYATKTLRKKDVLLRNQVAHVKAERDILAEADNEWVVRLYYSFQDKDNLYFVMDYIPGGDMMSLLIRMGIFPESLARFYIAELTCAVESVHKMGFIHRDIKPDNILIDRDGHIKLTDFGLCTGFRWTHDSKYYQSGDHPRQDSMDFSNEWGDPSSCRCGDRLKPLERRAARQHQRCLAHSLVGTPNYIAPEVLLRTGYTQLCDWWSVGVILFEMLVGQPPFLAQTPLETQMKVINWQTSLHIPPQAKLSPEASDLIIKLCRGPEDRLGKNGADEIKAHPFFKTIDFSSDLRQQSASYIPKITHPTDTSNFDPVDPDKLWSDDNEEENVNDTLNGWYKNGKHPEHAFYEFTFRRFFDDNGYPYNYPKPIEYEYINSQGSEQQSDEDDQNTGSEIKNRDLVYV
Description: (§1) Biochemical kinase inhibitory data was obtained for various exemplary compounds prepared according to the above.
(§2) The reagents used are as follows: Base Reaction buffer; 20 mM Hepes (pH 7.5), 10 mM MgCl2, 1 mM EGTA, 0.01% Brij35, 0.02 mg/ml BSA, 0.1 mM Na3VO4, 2 mM DTT, […]. Required cofactors were added individually to each kinase reaction.
(§3) The reaction procedure was as follows: • 1) Substrates were prepared in freshly prepared Reaction Buffer. • 2) Any required cofactors were delivered to the substrate solution above. • 3) Kinase was delivered into the substrate solution and gently mixed. • 4) Compounds were delivered in 100% DMSO into the kinase reaction mixture by Acoustic technology (Echo550; nanoliter range), followed by incubation for 20 min at room temp. • 5) ^33P-ATP was delivered into the reaction mixture to initiate the reaction. • 6) The mixture was incubated for 2 hours at room temperature. • 7) Kinase activity was detected by P81 filter-binding method.
(§4) Using the above functional assay, the inhibitory activity of the compounds for LATS1/2 versus AKT was characterized. The assays were typically run in a 10-point curve, in singlet, to produce a titration curve from which an IC50 value was obtained.
(§5) The reagents used are as follows: Base Reaction buffer; 20 mM Hepes (pH 7.5), 10 mM MgCl2, 1 mM EGTA, 0.01% Brij35, 0.02 mg/ml BSA, 0.1 mM Na3VO4, 2 mM DTT, 1% DMSO. Required cofactors were added individually to each kinase reaction.
(§6) Biochemical kinase inhibitory data was obtained for various exemplary compounds prepared according to the above in accordance with the protocols described in Examples 4 and 8. All biological activities are IC50, in nM.

LATS2 = target: T2, LATS2 (Homo sapiens, UniProt Q9NRM7); test: RBC HotSpot kinase assay (33P-ATP, P81 filter-binding), LATS2; conditions: Table 28, biochemical kinase assay; read-out: LATS2 IC50
T2 sequence (Q9NRM7 1-1088): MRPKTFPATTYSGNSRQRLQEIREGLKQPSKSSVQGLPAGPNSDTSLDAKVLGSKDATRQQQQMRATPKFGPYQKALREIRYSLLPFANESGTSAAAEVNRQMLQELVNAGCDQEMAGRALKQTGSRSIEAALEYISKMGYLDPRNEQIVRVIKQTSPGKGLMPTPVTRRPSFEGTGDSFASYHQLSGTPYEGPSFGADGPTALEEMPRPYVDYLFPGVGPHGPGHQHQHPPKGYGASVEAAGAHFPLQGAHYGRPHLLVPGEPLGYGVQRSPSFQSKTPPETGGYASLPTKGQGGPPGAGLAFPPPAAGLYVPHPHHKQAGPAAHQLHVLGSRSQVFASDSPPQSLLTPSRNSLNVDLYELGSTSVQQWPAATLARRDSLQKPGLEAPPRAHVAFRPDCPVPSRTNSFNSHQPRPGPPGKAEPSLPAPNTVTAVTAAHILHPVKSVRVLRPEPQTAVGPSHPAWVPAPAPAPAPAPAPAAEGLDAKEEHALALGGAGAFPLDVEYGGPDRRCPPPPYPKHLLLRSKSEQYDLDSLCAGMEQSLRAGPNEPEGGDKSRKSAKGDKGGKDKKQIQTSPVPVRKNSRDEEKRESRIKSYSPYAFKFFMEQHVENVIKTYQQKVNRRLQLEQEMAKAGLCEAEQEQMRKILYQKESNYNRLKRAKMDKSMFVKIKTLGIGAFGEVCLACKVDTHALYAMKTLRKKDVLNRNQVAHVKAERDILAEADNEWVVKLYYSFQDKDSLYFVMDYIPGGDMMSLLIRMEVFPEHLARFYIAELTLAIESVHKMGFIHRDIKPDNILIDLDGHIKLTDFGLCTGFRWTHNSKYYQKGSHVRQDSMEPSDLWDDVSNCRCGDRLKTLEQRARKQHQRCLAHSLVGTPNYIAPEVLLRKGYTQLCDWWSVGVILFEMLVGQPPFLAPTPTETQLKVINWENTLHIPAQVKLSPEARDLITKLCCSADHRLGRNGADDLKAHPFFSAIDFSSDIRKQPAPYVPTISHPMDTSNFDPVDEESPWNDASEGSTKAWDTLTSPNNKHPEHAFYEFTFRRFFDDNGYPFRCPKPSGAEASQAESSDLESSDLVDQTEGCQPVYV
Description: as §1, §2, §3, §4, §5, §6

AKT = AKT (Homo sapiens, UniProt P31749); test: RBC HotSpot kinase assay (33P-ATP, P81 filter-binding), AKT; conditions: Table 28, biochemical kinase assay; read-out: AKT IC50
Sequence of AKT (P31749 whole entry): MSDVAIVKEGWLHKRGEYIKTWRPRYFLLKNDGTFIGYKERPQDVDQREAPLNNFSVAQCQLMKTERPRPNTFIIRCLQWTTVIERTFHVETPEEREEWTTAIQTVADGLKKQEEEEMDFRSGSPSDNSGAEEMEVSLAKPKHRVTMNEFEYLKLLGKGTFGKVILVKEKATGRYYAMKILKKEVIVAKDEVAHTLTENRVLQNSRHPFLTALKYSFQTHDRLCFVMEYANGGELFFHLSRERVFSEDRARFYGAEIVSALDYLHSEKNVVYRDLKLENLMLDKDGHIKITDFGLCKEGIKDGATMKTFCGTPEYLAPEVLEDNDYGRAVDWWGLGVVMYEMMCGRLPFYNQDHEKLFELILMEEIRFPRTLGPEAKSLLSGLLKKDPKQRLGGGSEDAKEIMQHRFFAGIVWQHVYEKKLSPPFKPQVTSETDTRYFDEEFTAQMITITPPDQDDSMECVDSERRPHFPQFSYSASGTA
Description: as §1, §2, §3, §4, §5, §6

## Cc1cc(-c2ccnc3[nH]cc(F)c23)cc(F)c1C1(O)[C@H](C)CN(C2CCOCC2)C[C@@H]1C (stereo partly drawn) [Compound 33, (3S,5R)-4-(2-fluoro-4-(3-fluoro-1H-pyrrolo[2,3-b]pyridin-4-yl)-6-methylphenyl)-3,5-dimethyl-1-(tetrahydro-2H-pyran-4-yl)piperidin-4-ol]
LATS1
  IC50: 3.4 nM
LATS2
  IC50: 1.9 nM
AKT
  IC50: 474 nM

## Cc1cc(-c2ccnc3[nH]cc(F)c23)cc(F)c1C1(O)[C@H](C)CN(C2CCOC2)C[C@@H]1C (stereo partly drawn) [Compound 34, (3S,5R)-4-(2-fluoro-4-(3-fluoro-1H-pyrrolo[2,3-b]pyridin-4-yl)-6-methylphenyl)-3,5-dimethyl-1-(tetrahydrofuran-3-yl)piperidin-4-ol]
LATS1
  IC50: 14.3 nM
LATS2
  IC50: 8.3 nM
AKT
  IC50: 908 nM

## C[C@@H]1CN(C2CCS(=O)(=O)CC2)C[C@H](C)C1(O)c1cnc(-c2ccnc3[nH]cc(F)c23)cc1F (stereo partly drawn) [Compound 35, 4-((3S,5R)-4-(4-fluoro-6-(3-fluoro-1H-pyrrolo[2,3-b]pyridin-4-yl)pyridin-3-yl)-4-hydroxy-3,5-dimethylpiperidin-1-yl)tetrahydro-2H-thiopyran 1,1-dioxide]
LATS1
  IC50: 99.4 nM
LATS2
  IC50: 63.4 nM
AKT
  IC50: 2080 nM

## C[C@@H]1CN(C2COC2)C[C@H](C)C1(O)c1cnc(-c2ccnc3[nH]cc(F)c23)cc1F (stereo partly drawn) [Compound 36, (3S,5R)-4-(4-fluoro-6-(3-fluoro-1H-pyrrolo[2,3-b]pyridin-4-yl)pyridin-3-yl)-3,5-dimethyl-1-(oxetan-3-yl)piperidin-4-ol]
LATS1
  IC50: 98.5 nM
LATS2
  IC50: 79.6 nM
AKT
  IC50: > 1000 nM

## C[C@@H]1CN(C)C[C@H](C)[C@@]1(O)c1c(F)cc(-c2ccnc3[nH]cc(F)c23)cc1F [Compound 37, (3S,4s,5R)-4-(2,6-difluoro-4-(3-fluoro-1H-pyrrolo[2,3-b]pyridin-4-yl)phenyl)-1,3,5-trimethylpiperidin-4-ol]
LATS1
  IC50: 10.1 nM
LATS2
  IC50: 8.6 nM
AKT
  IC50: 477 nM

## C[C@@H]1CN(C)C[C@H](C)[C@@]1(O)c1ccc(-c2ccnc3[nH]ccc23)cc1 [Compound 38, (3R,4s,5S)-4-(4-(1H-pyrrolo[2,3-b]pyridin-4-yl)phenyl)-1,3,5-trimethylpiperidin-4-ol]
LATS1
  IC50: 28 nM
LATS2
  IC50: 27 nM
AKT
  IC50: 181 nM

## C[C@@H]1CN(C)C[C@H](C)[C@@]1(O)c1ccc(-c2ccnc3[nH]ccc23)nc1 [Compound 40, (3R,4s,5S)-4-(6-(1H-pyrrolo[2,3-b]pyridin-4-yl)pyridin-3-yl)-1,3,5-trimethylpiperidin-4-ol]
LATS1
  IC50: 99 nM
LATS2
  IC50: 293 nM
AKT
  IC50: 1540 nM

## C[C@@H]1CN(C)C[C@H](C)[C@@]1(O)c1ccc(-c2ccnc3[nH]cc(F)c23)cc1F [Compound 42, (3R,4s,5S)-4-(2-fluoro-4-(3-fluoro-1H-pyrrolo[2,3-b]pyridin-4-yl)phenyl)-1,3,5-trimethylpiperidin-4-ol]
LATS1
  IC50: 9.7 nM
LATS2
  IC50: 6.7 nM
AKT
  IC50: 159 nM

## Cc1cc(-c2ccnc3[nH]cc(F)c23)ccc1[C@@]1(O)[C@H](C)CN(C)C[C@@H]1C [Compound 43, (3R,4s,5S)-4-(4-(3-fluoro-1H-pyrrolo[2,3-b]pyridin-4-yl)-2-methylphenyl)-1,3,5-trimethylpiperidin-4-ol]
LATS1
  IC50: 3.2 nM
LATS2
  IC50: 2.9 nM
AKT
  IC50: 63.5 nM

## Cc1cc(-c2ccnc3[nH]cc(F)c23)ncc1[C@@]1(O)[C@H](C)CN(C)C[C@@H]1C [Compound 44, (3R,4s,5S)-4-(6-(3-fluoro-1H-pyrrolo[2,3-b]pyridin-4-yl)-4-methylpyridin-3-yl)-1,3,5-trimethylpiperidin-4-ol]
LATS1
  IC50: 8.9 nM
LATS2
  IC50: 19.6 nM
AKT
  IC50: 1610 nM

## CC(C)N1C[C@@H](C)[C@](O)(c2c(F)cc(-c3ccnc4[nH]cc(F)c34)cc2F)[C@@H](C)C1 [Compound 47, (3R,4s,5S)-4-(2,6-difluoro-4-(3-fluoro-1H-pyrrolo[2,3-b]pyridin-4-yl)phenyl)-1-isopropyl-3,5-dimethylpiperidin-4-ol]
LATS1
  IC50: 4.7 nM
LATS2
  IC50: 11.2 nM
AKT
  IC50: 449 nM

## Cc1cc(-c2ccnc3[nH]cc(F)c23)cc(Cl)c1[C@@]1(O)[C@H](C)CN(C2COC2)C[C@@H]1C [Compound 49, (3R,4s,5S)-4-(2-chloro-4-(3-fluoro-1H-pyrrolo[2,3-b]pyridin-4-yl)-6-methylphenyl)-3,5-dimethyl-1-(oxetan-3-yl)piperidin-4-ol]
LATS1
  IC50: 697 nM
LATS2
  IC50: 428 nM
AKT
  IC50: 125 nM

## Cc1nc(-c2ccnc3[nH]cc(F)c23)ccc1[C@@]1(O)[C@H](C)CN(C2CCC2)C[C@@H]1C [Compound 50, (3R,4s,5S)-1-cyclobutyl-4-(6-(3-fluoro-1H-pyrrolo[2,3-b]pyridin-4-yl)-2-methylpyridin-3-yl)-3,5-dimethylpiperidin-4-ol]
LATS1
  IC50: 6.1 nM
LATS2
  IC50: 24.7 nM
AKT
  IC50: 906 nM

## Cc1cc(-c2ccnc3[nH]cc(F)c23)ncc1[C@@]1(O)[C@H](C)CN(Cc2ccncc2)C[C@@H]1C [Compound 52, (3R,4s,5S)-4-(6-(3-fluoro-1H-pyrrolo[2,3-b]pyridin-4-yl)-4-methylpyridin-3-yl)-3,5-dimethyl-1-(pyridin-4-ylmethyl)piperidin-4-ol]
LATS1
  IC50: 2210 nM
LATS2
  IC50: 5080 nM
AKT
  IC50: > 10000 nM
